In US9474759B2 (priority 2011, dated 2016):
Where two headings read alike, the source gives them in different places.

What was measured:
TGEV = assay: Cell-based screening, TGEV in ST cells (Example 2); design: species or system transmissible gastroenteritis virus; settings: Alphacoronavirus 1; ST cells; read-out: Inhibition [ED50 (μM)] against various viruses: Coronavirus, TGEV
Experimental: (§1) 3. Cell-based screening of inhibitor. The effects of each inhibitor on the viral replication were examined. The list of viruses and corresponding cell lines are listed above in Table 2. Briefly, confluent cells were inoculated with virus at a MOI of 5 or 0.05 for 1 hr, and medium was replaced with medium containing mock-medium or each compound (up to 100 μM). The virus infected cells were further incubated for up to 96 hrs, and the replication of virus was measured by TCID50 assay with the 10-fold dilution of each sample used for virus titration (Reed and Muench, 1938). In some viruses, the virus protein and genome expression levels were detected by Western blot analysis and real-time qRT-PCR, respectively, as described below. The IC50s of the compounds were calculated.

FCV [1] = assay: Cell culture system, FCV replication in CRFK cells (Example 3); format: cell-based, feline calicivirus; settings: Feline calicivirus; cell-based assay, CRFK cells; read-out: IC50 against FCV replication
[2] = target: PV 3Cpro (codon-optimized, N-terminal 6 His, recombinant) (Poliovirus type 1, UniProt P03300); assay: biochemical; design: species or system poliovirus (poliomyelitis virus)
Teschovirus = assay: organism not typed; format: cell-based, porcine teschovirus; settings: read-out: Inhibition [ED50 (μM)] against various viruses: Picornavirus, Teschovirus
FIPV-1146 = FIPV-1146 replication in CRFK cells, TCID50 method; format: cell-based, feline coronavirus; settings: Alphacoronavirus 1, MOI 0.05, mean ± SEM
Experimental: (§2) Crandell Rees feline kidney (CRFK) cells were maintained in minimal essential medium containing 2-5% fetal bovine serum and antibiotics (chlortetracycline [25 μg/ml], penicillin [250 U/ml], and streptomycin [250 μg/ml]). FIPV WSU 79-1146 and FECV WSU 79-1683 strains are the prototypes of serotype II FIPV or FECV, respectively, and were purchased from ATCC (Manassas, Va.).
(§3) The cells were further incubated in the presence of each compound for 1 hr at 37° C. Then […] or FECV-1683 was inoculated to the cells at a multiplicity of infection (MOI) of 0.05 or 5.
(§4) b. TCID50 Method. A standard TCID50 method with the 10-fold dilution of each sample was used for virus titration.

FECV-1683 = FECV-1683 replication in CRFK cells, TCID50 method; format: cell-based, feline coronavirus; settings: Alphacoronavirus 1, MOI 0.05, mean ± SEM
Experimental: as §2, §3, §4

[3] = tested on: Norwalk virus (HG23 cells); assay: microbe, parasite or virus in culture; format: cell-based; settings: HG23, read-out: Inhibition [ED50 (μM)] against various viruses: Calicivirus, HG23 cells
[4] = target: MNV-1 3CLpro (codon-optimized, full-length, recombinant) (Norovirus, UniProt Q80J95); assay: biochemical; design: species or system murine norovirus-1 (GV)
TGEV 3CL protease = TGEV 3CL protease (Porcine transmissible gastroenteritis coronavirus, UniProt P0C6Y5); assay: FRET-based protease assay, TGEV 3CL protease (Example 5); format: biochemical, TGEV Miller strain; settings: TGEV 3CL protease; read-out: IC50 against 3CL protease in the FRET assay
Text: The 3CL proteases are highly conserved among all coronaviruses, and feline coronavirus 3CL protease is closely related TGEV 3CL protease. Therefore we cloned and expressed the TGEV 3CL protease for the FRET assay. The cDNA encoding the full length of 3CL protease of TGEV Miller strain was amplified with RT-PCR as previously described. The primers contained the nucleotide sequence of the 3CL protease for cloning as well as the nucleotides for 6 Histidine in the forward primer. The amplified product was subcloned to pET-28a(+) vector (GenScript, Piscataway, N.J.). The expression and purification of the 3CL protease was performed with a standard method described previously by our lab (Chang et al., 2012b; Takahashi et al., 2012; Tiew et al., 2011).
Our protease inhibitor compounds and commercial cathepsin inhibitors CA074-Me and E64d were prepared in DMSO as stock solutions (10 mM), and further diluted in assay buffer consisting of 20 mM HEPES, 0.4 mM EDTA, 30% glycerol, 120 mM NaCl, and 4 mM DTT at pH 6. […] TGEV 3CL protease at a final concentration of 0.1˜0.2 μM and the substrate (Dabcyl-[…]-Edans; SEQ ID NO:2) at 10 μM were used for the studies. The substrate was purchased from Bachem Americas, Inc (Torrance, Calif.). Compounds at various concentrations (0˜50 μM) were pre-incubated with TGEV 3CL protease in 25 μl for 30 min at 37° C., and the same volume of substrate was added to a 96-well black plate. The mixtures were then incubated at 37° C. for 60 min, and fluorescence readings were obtained on a microplate reader at 360 nm excitation and 480 nm emission wavelengths. The relative fluorescence units (RFU) were calculated by subtracting background (substrate control well without protease) from the fluorescence readings. The dose-dependent FRET inhibition curves were fitted with variable slope (four parameters) using GraphPad Prism software (La Jolla, Calif.) in order to determine the compound concentration that gives a half-maximum response (IC50).

[5] = target: MD145 3CLpro (codon-optimized, full-length, N-terminal 6 His, recombinant) (Lordsdale virus, UniProt P54634); assay: biochemical; design: species or system norovirus strain MD145 (human norovirus GII)
[6] = target: NV 3CLpro (codon-optimized, full-length, N-terminal 6 His, recombinant) (Norovirus, UniProt Q83883); assay: biochemical; design: species or system norovirus strain Norwalk
[7] = target: FMDV 3Cpro (codon-optimized, N-terminal 6 His, recombinant) (Foot-and-mouth disease virus serotype O, UniProt P03305); assay: biochemical
MNV-1 [8] = assay: Cell-based screening, MNV-1 in RAW267.4 cells (Example 2); design: species or system murine norovirus; settings: Norwalk virus; RAW267.4 cells; read-out: Inhibition [ED50 (μM)] against various viruses: Calicivirus, MNV-1
Experimental: as §1

FCV [9] = assay: Cell-based screening, FCV in CRFK cells (Example 2); settings: Feline calicivirus; CRFK cells; read-out: Inhibition [ED50 (μM)] against various viruses: Calicivirus, FCV
Experimental: as §1

MNV-1 [10] = assay: microbe, parasite or virus in culture; settings: Norwalk virus, read-out: Initial IC50 values against MNV-1
FIPV = assay: Cell-based screening, FIPV in CRFK cells (Example 2); design: species or system feline infectious peritonitis virus; settings: Alphacoronavirus 1; CRFK cells; read-out: Inhibition [ED50 (μM)] against various viruses: Coronavirus, FIPV
Experimental: as §1

229E = assay: Cell-based screening, 229E in MRC-5 cells (Example 2); settings: Human coronavirus 229E, MRC5; MRC-5 cells; read-out: Inhibition [ED50 (μM)] against various viruses: Coronavirus, 229E
Experimental: as §1

HAV = assay: Cell-based screening, HAV (Example 2); design: species or system hepatitis A virus; settings: Picornaviridae; read-out: Inhibition [ED50 (μM)] against various viruses: Picornavirus, HAV
Experimental: as §1

[11] = target: recombinant 3C or 3CL of MD145 (Norovirus Hu/GII.4/MD145-12/1987/US (Maryland virus), UniProt Q8V0P3); assay: FRET protease assay, MD145 3CL (Example 2); format: biochemical, norovirus strain MD145
EV71 = assay: Cell-based screening, EV71 in Vero cells (Example 2); design: species or system enterovirus 71; settings: Enterovirus A, EV71; Vero cells; read-out: Inhibition [ED50 (μM)] against various viruses: Picornavirus, EV71
Experimental: as §1

recombinant 3C or 3CL of MD145, sequence (Q8V0P3 entry or part of it): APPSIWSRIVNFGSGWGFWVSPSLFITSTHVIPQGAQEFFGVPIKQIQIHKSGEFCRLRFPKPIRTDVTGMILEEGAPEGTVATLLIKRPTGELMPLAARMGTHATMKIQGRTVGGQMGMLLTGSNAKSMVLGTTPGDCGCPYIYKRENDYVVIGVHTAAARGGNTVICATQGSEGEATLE
FMDV 3Cpro (codon-optimized, N-terminal 6 His, recombinant), sequence (P03305 1650-1862 limits assumed): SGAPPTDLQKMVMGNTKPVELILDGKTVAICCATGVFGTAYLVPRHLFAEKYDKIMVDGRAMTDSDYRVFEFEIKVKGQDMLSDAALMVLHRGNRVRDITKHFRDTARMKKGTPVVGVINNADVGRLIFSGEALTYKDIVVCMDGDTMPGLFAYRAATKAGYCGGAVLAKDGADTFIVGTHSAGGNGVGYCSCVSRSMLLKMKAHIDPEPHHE
MD145 3CLpro (codon-optimized, full-length, N-terminal 6 His, recombinant), sequence (P54634 1009-1189): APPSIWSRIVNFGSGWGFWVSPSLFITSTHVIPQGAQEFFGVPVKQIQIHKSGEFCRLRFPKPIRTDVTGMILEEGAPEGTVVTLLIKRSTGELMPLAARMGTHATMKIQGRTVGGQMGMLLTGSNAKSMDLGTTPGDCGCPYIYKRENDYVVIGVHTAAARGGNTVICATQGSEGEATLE
TGEV 3CL protease, sequence (P0C6Y5 2879-3180): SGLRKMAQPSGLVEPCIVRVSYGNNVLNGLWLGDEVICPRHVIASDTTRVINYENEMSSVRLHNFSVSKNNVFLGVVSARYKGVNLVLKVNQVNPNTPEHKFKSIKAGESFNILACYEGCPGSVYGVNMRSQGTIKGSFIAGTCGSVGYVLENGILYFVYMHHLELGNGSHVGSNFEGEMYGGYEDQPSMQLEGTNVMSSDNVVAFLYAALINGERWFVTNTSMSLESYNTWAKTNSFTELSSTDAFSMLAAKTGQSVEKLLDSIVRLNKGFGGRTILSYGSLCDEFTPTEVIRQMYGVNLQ
MNV-1 3CLpro (codon-optimized, full-length, recombinant), sequence (Q80J95 995-1177): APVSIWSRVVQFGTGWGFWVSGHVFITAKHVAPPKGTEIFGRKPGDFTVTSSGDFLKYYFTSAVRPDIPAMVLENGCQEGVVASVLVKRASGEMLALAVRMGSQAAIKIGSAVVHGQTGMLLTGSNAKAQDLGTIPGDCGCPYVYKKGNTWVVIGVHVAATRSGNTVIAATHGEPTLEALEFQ
PV 3Cpro (codon-optimized, N-terminal 6 His, recombinant), sequence (P03300 1566-1748 limits assumed): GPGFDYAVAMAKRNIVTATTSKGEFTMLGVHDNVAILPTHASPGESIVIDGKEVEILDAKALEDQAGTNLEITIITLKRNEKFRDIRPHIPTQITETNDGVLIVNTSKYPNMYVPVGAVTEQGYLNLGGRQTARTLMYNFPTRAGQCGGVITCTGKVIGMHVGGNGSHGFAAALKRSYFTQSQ
NV 3CLpro (codon-optimized, full-length, N-terminal 6 His, recombinant), sequence (Q83883 1101-1281): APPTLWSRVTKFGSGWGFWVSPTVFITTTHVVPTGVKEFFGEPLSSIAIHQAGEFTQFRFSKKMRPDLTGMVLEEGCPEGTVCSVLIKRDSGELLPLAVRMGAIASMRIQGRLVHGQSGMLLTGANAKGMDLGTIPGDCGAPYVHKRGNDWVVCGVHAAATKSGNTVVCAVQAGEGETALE

For `CC(C)C[C@H](NC(=O)OCc1ccccc1)C(=O)N[C@@H](CC1CCNC1=O)C(O)S(=O)(=O)O` (stereo partly shown) [GC376], the EC50 (TGEV) was 0.15 µM, the IC50 (FCV [1]) was 35000 nM and the IC50 [2] was 1770 ± 310 nM. It also gave an EC50 (Teschovirus) of 0.15 µM, an EC50 (FIPV-1146; 24 hr post infection, read-out: Inhibition [ED50 (μM)] against FIPV-1146, 24 hrs) of 0.15 ± 0.05 µM and an EC50 (FIPV-1146; 48 hr post infection, read-out: Inhibition [ED50 (μM)] against FIPV-1146, 48 hrs) of 0.3 ± 0.1 µM. For the same compound, the EC50 (FECV-1683; 24 hr post infection, read-out: Inhibition [ED50 (μM)] against FECV-1683, 24 hrs) was 0.17 ± 0.11 µM, the EC50 (FECV-1683; 48 hr post infection, read-out: Inhibition [ED50 (μM)] against FECV-1683, 48 hrs) was 0.28 ± 0.1 µM and the EC50 [3] was 1.8 µM. The IC50 [4] was 1120 nM, the IC50 (TGEV 3CL protease) was 820 nM and the IC50 [5] was 960 nM. For the same compound, the IC50 [6] was 490 ± 50 nM, the IC50 [7] was 1160 ± 750 nM and the EC50 (MNV-1 [8]) was 5.3 µM. The EC50 (FCV [9]) was 35 µM, the IC50 (MNV-1 [10]) was 6200 to 7100 nM and the EC50 (FIPV) was 0.2 µM. It also gave an EC50 (229E) of 0.3 µM, an EC50 (HAV) of 50 µM and an IC50 [11] of 9.8 µM. It also gave an EC50 (EV71) of 10 µM.
